Results published in PMC9230870, “Investigation of the Uptake and Transport of Two Novel Camptothecin Derivatives in Caco-2 Cell Monolayers” (Molecules, 2022).
Like-named read-outs stand apart in the source and are kept apart here.

What was measured:
HCT 116 = assay: MTT cytotoxicity assay, HCT 116; format: cell-based; conditions: HCT 116, MTT, 72 h, mean ± SD (n = 3)
Description: (§1) HCT 116, HeLa, A549, Hep G2, and Caco-2 cell lines were obtained from the China Center for Type Culture Collection, CCTCC (Wuhan, China). They were cultured in DMEM, including 10% FBS, 1% penicillin (l00 μg/mL), and 1% streptomycin (l00 μg/mL), in a constant temperature incubator at 37 °C with 5% CO2.
(§2) The cytotoxicity of FL118, FL77-28, and FL77-29 against HCT116, HeLa, A549 HepG2, and Caco-2 cell lines were measured using MTT assays. The cells were plated into 96-well plates at a density of 2 × 10^4 cells/mL and cultured for 24 h. Next, the cells were treated with 0.0125–0.500 μM of FL118, FL77-28, and FL77-29 for 4 h or 72 h. After incubation with 20 µL of 5 mg/mL MTT solution for 4 h, the supernatant was gently discarded and 150 µL of DMSO was added to dissolve the formazan crystals. Finally, the absorbance was measured at 570 nm and the background was subtracted at 630 nm using an ELISA Plate Reader.

Hep G2 = assay: MTT cytotoxicity assay, Hep G2; format: cell-based; conditions: 72 h, mean ± SD (n = 3)
Description: as §1, §2

A549 = assay: MTT cytotoxicity assay, A549; format: cell-based; conditions: 72 h, mean ± SD (n = 3)
Description: as §1, §2

HeLa = assay: MTT cytotoxicity assay, HeLa; format: cell-based; conditions: 72 h, mean ± SD (n = 3)
Description: as §1, §2

Caco-2 cells [1] = system: Caco-2 cells
Description: as §1
as §2, with “Next, the cells were treated with 0.0125–0.500 μM of FL118, FL77-28, and FL77-29 for 4 h or 72 h.” left out

Caco-2 cells [2] = assay: Cellular uptake in Caco-2 cells, effect of temperature; format: in vitro ADME; conditions: 4 °C versus 37 °C, 4 h, 0.2-1.0 μM
Description: (§3) Caco-2 cells were plated in a 6-well plate at a density of 2 × 10^5 cells/well and cultured at 37 °C. After reaching 80% confluence, Caco-2 cells could be used in the uptake experiments. Next, the cells were washed twice with HBSS and pre-incubated with HBSS or 1 µM Verapamil or Gefitinib for 30 min. After pre-incubation, the drug-free HBSS was replaced by FaSSIF containing FL118, FL77-28, or FL77-29 (0.2, 0.4, 0.6, 0.8, and 1.0 μM), and then incubated for 4 h at 37 °C or 4 °C, respectively. Next, the cells were collected and lysed by freezing and thawing three times. Then, the cells were sonicated and centrifuged at 10,000 rpm for 10 min. Finally, the supernatants were used to measure concentrations of compounds and proteins by HPLC and Bradford methods.
(§4) Using the Shimadzu HPLC system (Shimadzu, Kyoto, Japan), the samples taken from the uptake experiment and the transport studies were eluted on a C18 reverse-phase column (250 mm × 4.6 mm, 5 μm, Elite, Dalian). The column was maintained at 40 °C and the absorbance detector wavelength was 365 nm. The mobile phase used for FL118, FL77-28, and FL77-29 consisted of acetonitrile: 0.1% formic acid (40:60, v/v), (60:40, v/v), and (65:35, v/v). The flow rate was 1.0 mL/min, and the injection volume was 20 μL. The retention times of FL118, FL77-28, and FL77-29 were 6.109 min (Figure 1A), 8.456 min (Figure 1B), and 6.351 min (Figure 1C), respectively. Calibration curves were constructed over a concentration range of 0.03–1.00 μM. […] The concentration of FL118, FL77-28, and FL77-29 was determined according to the typical equations.

BCRP [3] = target: T1, BCRP (Homo sapiens, UniProt Q9UNQ0); assay: Cellular uptake in Caco-2 cells with BCRP inhibitor Gefitinib; format: in vitro ADME; conditions: 1 µM Gefitinib pre-incubation 30 min, 0.2-1.0 μM, 37 °C, 4 h
T1 construct: endogenous in cells; host or cells: Caco-2
T1 sequence (Q9UNQ0 1-655): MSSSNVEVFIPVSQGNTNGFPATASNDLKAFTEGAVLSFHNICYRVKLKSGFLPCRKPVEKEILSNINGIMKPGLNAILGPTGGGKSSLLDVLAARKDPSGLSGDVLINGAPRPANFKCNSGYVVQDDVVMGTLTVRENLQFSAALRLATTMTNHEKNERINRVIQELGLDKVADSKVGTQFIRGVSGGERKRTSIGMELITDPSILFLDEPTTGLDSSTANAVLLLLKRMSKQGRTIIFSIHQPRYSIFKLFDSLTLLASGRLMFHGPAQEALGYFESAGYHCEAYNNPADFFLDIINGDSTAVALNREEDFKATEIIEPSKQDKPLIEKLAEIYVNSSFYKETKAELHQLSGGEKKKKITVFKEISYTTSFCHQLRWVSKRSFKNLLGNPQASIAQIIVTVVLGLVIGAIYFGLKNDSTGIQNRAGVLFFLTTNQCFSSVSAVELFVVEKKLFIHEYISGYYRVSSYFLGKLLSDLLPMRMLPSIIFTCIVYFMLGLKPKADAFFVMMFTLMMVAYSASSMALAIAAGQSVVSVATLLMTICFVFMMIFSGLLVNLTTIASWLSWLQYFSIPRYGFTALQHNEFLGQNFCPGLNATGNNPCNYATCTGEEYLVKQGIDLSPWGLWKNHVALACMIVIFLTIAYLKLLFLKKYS
Description: as §3, §4

BCRP [4] = target: T1, BCRP; conditions: cited from earlier work
P-gp [5] = target: T2, P-gp (Homo sapiens, UniProt P08183); conditions: cited from earlier work
T2 sequence (P08183 whole entry): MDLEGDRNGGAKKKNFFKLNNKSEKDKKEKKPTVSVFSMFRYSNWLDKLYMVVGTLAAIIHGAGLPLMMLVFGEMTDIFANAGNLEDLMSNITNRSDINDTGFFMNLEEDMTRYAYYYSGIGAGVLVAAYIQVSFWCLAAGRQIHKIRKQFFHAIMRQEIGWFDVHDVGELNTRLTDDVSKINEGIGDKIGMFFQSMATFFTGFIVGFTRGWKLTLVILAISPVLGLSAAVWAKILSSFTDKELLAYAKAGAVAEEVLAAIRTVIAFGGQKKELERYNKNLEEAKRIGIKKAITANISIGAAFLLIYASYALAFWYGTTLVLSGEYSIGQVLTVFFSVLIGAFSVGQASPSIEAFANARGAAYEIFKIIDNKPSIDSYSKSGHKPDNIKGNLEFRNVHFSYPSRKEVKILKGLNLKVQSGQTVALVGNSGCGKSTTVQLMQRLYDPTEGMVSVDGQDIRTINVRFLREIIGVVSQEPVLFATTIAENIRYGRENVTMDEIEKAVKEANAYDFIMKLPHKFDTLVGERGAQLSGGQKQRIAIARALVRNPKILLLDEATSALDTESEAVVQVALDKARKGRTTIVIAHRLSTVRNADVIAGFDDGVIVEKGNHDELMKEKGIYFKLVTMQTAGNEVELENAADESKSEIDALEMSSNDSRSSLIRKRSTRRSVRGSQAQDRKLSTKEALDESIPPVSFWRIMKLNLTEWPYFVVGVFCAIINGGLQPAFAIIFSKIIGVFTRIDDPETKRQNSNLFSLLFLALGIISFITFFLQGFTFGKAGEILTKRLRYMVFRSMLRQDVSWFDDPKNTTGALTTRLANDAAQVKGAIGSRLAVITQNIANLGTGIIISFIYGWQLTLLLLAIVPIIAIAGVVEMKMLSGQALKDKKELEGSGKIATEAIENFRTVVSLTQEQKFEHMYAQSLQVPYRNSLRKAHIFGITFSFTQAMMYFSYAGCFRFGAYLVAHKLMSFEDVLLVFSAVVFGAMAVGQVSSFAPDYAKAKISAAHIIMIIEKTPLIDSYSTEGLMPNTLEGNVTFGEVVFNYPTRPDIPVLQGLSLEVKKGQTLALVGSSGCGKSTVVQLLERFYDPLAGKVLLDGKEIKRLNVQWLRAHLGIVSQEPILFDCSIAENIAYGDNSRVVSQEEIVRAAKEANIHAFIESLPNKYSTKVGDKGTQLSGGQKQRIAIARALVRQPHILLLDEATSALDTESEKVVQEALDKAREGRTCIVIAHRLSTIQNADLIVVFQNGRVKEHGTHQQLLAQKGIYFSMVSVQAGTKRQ

P-gp [6] = target: T2, P-gp; assay: Cellular uptake in Caco-2 cells with P-gp inhibitor Verapamil; format: in vitro ADME; parameters: endogenous in cells; host or cells: Caco-2; conditions: 1 µM Verapamil pre-incubation 30 min, 0.2-1.0 μM, 37 °C, 4 h
Description: as §3, §4

Caco-2 cell monolayers = assay: Transport across Caco-2 cell monolayers; format: in vitro ADME; conditions: for Papp AP-BL / efflux ratio (ER) = Papp BL-AP/Papp AP-BL: 1.0 μM; for Papp AP-BL: AP FaSSIF pH 6.5, BL HBSS pH 7.4; for efflux ratio (ER) = Papp BL-AP/Papp AP-BL: Caco-2 monolayer
Description: When Caco-2 cells reached 80–90% confluence in T-25 flasks, the cells were digested, centrifuged, and resuspended. After seeding at a density of 2 × 10^5 cells/well onto the apical of the Transwell® plate, 0.5 mL of 10% DMEM was added into the apical (AP) chamber and 1.5 mL of 10% DMEM was added into the basolateral (BL) chamber. The buffer was refreshed every two days, and after one week it was refreshed daily and incubated until 21 days.
The integrity of the Caco-2 cell monolayer was evaluated by measuring the transepithelial electrical resistance (TEER) and the permeability of Lucifer yellow (LY). The TEER was measured using Millicell® ERS-2 voltameter (Bedford, USA). The Caco-2 cell model was used for the transport of FL77-28 and FL77-29 when the TEER values exceeded 300 Ω/cm^2. The TEER value was also measured at the end of the transport experiment. In addition, the permeability of LY, a paracellular transport marker, was also measured for the tightness of epithelial cells. […] Then, the fluorescence of samples was measured at excitation/emission wavelengths of 492/520 nm using the ELISA Plate.
Before the transport studies, the Caco-2 cell monolayers were washed twice with warm HBSS containing 15 mM glucose, 10 mM HEPES, and 1% BSA (pH 7.4) and pre-incubated for 30 min at 37 °C [26]. Next, HBSS was discarded and replaced with 0.5/1.0 µM of FL77-28 and FL77-29 dissolved in a different buffer on one side of the cell layer, 0.5 mL for the AP side and 1.5 mL for the BL side. The buffer at the AP was FaSSIF (pH 6.5) and the buffer at the BL was HBSS. Then, the monolayers were incubated at 37 °C. A sample aliquot of 0.5 mL (AP-BL) or 0.25 mL (BL-AP) was taken from the receiving compartment at different time points (120, 150, 180, 210, and 240 min) and then replaced with an equal volume of fresh pre-warmed buffer. The concentrations of FL77-28 and FL77-29 in the sample were determined by HPLC.
as §4
The concentration of each sample was measured by HPLC. The Papp of FL77-28 and FL77-29 was calculated according to the following equation:Papp (cm/s) = V/(C0·A)·(ΔQ/Δt)(1) where V (cm^3) is the volume of the receiver compartment, A is the monolayer surface area of the Transwell insert (1.12 cm^2), C0 is the initial drug concentration in the donor compartment, and (ΔQ/Δt) is the transport rate.
The efflux ratio (ER) was calculated using the following equation:ER = Papp BL-AP/Papp AP-BL(2)

[7] = Caco-2 cells, 0.2 to 1.0 μM, 4 h, MTT

Compound | IC50 (HCT 116) | IC50 (Hep G2) | IC50 (A549) | IC50 (HeLa) | cell viability (Caco-2 cells [1]) | effect of temperature on cellular uptake (Caco-2 cells [2]) | substrate of BCRP (uptake with Gefitinib) (BCRP [3]) | substrate of BCRP (BCRP [4]) | substrate of P-gp (P-gp [5]) | substrate of P-gp (uptake with Verapamil) (P-gp [6]) | cell viability (Caco-2 cells [1]; [7]) | Papp AP-BL (Caco-2 cell monolayers; 37 °C) | efflux ratio (ER) = Papp BL-AP/Papp AP-BL (Caco-2 cell monolayers) | Papp of LY (monolayer integrity marker) (Caco-2 cell monolayers; 20 µg/mL, 2 h, 37 °C)
CC[C@@]1(O)C(=O)OCc2c1cc1n(c2=O)Cc2cc3cc4c(cc3nc2-1)OCO4 [FL118, 10,11-methylenedioxy-20(S)-CPT, reference compound] | 50 ± 4 nM | 104 ± 2 nM | 43 ± 4 nM | 40 ± 3 nM | above 90% | no significant effect | not substrates of P-gp or BCRP | not being a substrate for P-gp or BCRP | not being a substrate for P-gp | not substrates of P-gp |  |  |  | 
CC[C@@]1(O)C(=O)OCc2c1cc1n(c2=O)Cc2c-1nc1cc3c(cc1c2-c1ccc(C)c(F)c1)OCO3 [FL77-28, 7-(3-Fluoro-4-methylphenyl)-10,11-methylenedioxy-20(S)-CPT] | 45 ± 14 nM | 65 ± 1 nM | 48 ± 7 nM | 22 ± 7 nM |  | no significant effect | not substrates of P-gp or BCRP |  |  | not substrates of P-gp | above 90% | 2.32 ± 0.04 × 10^−6 cm/s | 1.14 | 
Lucifer yellow [LY, reference compound] |  |  |  |  |  |  |  |  |  |  |  |  |  | 0.57 ± 0.14 × 10^−6 cm/s
CC[C@@]1(O)C(=O)OCc2c1cc1n(c2=O)Cc2c-1nc1cc3c(cc1c2-c1ccc(F)c(C)c1)OCO3 [FL77-29, 7-(4-Fluoro-3-methylphenyl)-10,11-methylenedioxy-20(S)-CPT] | 25 ± 3 nM | 34 ± 2 nM | 28 ± 4 nM | 36 ± 4 nM |  | incubation at 4 °C significantly increased the cellar uptake | not a substrate for BCRP |  |  | mediated by P-gp | above 90% | 2.48 ± 0.18 × 10^−6 cm/s | 1.40 | 
